Where two headings read alike, the source gives them in different places.
Tests used:
[1] = system: L. infantum promastigotes; assay: Leishmanicidal activity on promastigotes (PI exclusion, flow cytometry); format: cell-based, Leishmania infantum; conditions: for EC50: Leishmania infantum
Experimental: (§1) L. infantum promastigotes (MCAN/ES/89/IPZ229/1/89) were grown in Roswell Park Memorial Institute (RPMI)-1640 medium (Sigma-Aldrich, St. Louis, MO) supplemented with 10% heat-inactivated fetal calf serum (FCS), antibiotics, and 25 mM HEPES (pH 7.2) at 26 °C. L. infantum axenic amastigotes (MCAN/ES/89/IPZ229/1/89) were grown in M199 medium (Invitrogen, Leiden, The Netherlands) supplemented with 10% heat-inactivated FCS, 1 g/L β-alanine, 100 mg/L L-asparagine, 200 mg/L sucrose, 50 mg/L sodium pyruvate, 320 mg/L malic acid, 40 mg/L fumaric acid, 70 mg/L succinic acid, 200 mg/L α-ketoglutaric acid, 300 mg/L citric acid, 1.1 g/L sodium bicarbonate, 5 g/L morpholineethanesulfonic acid (MES), 0.4 mg/L hemin, and 10 mg/L gentamicine, pH 5.4, at 37 °C.
(§2) Drug treatment of L. infantum promastigotes was performed during the logarithmic growth phase at a concentration of 2 × 10^6 parasites/mL at 26 °C for 24 h. […] EC50 was evaluated by flow cytometry by the propidium iodide (PI) exclusion method. After selection of the parasite population based on their forward scatter (FSC) and side scatter (SSC) values, live and dead parasite cells were identified by their permeability to PI. All of the assays were conducted in triplicate in at least three independent experiments. Data were analyzed using a nonlinear regression model with GraFit 6 software (Erithacus, Horley, Surrey, U.K.).

[2] = system: L. infantum axenic amastigotes; assay: Leishmanicidal activity on axenic amastigotes (PI exclusion, flow cytometry); format: cell-based, Leishmania infantum; conditions: for SIa (ratio of EC50 against human cells to EC50 against amastigotes): HepG2 / axenic amastigotes; for EC50: Leishmania infantum, axenic amastigotes, 24 h at 37 °C, read-out: EC50 amastigotes
Experimental: as §1
Axenization was performed by diluting 0.5 mL of a 7-day stationary phase culture of L. infantum promastigotes (2–3 × 10^7 parasites/mL) in 4.5 mL of amastigotes medium and incubating the culture at 37 °C for 2 or 3 days. L. infantum axenic amastigotes apparition was followed by phase-contrast microscopy using an Eclipse Ti inverted microscope (Nikon, Tokyo, Japan).
as §2

[3] = system: HepG2 cells; assay: Cellular toxicity, crystal violet assay; format: cell-based; conditions: Homo sapiens, HepG2; 24 h, crystal violet method; read-out: EC50 HepG2
Experimental: Liver hepatocellular carcinoma HepG2 cells were grown in Dulbecco’s modified Eagle’s medium (DMEM) (Sigma-Aldrich, St. Louis, MO) with 10% heat-inactivated FCS, antibiotics, and 10 mM HEPES.
Drug treatment of liver hepatocellular carcinoma HepG2 cells was performed at a concentration of 10^5 cells/mL at 37 °C and 5% CO2 for 24 h. EC50 was evaluated by the crystal violet assay. Briefly, cells were washed with phosphate-buffered saline (PBS) and stained with 200 μL of crystal violet solution (0.2% crystal violet, 2% ethanol) for 10 min at room temperature. Next, the plates were washed twice with tap water and allowed to dry. The stained cells were solubilized with 400 μL of 1% sodium dodecyl sulfate (SDS), and the color intensity was quantified at 570 nm using an EnSpire Multimode Plate Reader (PerkinElmer, Waltham, MA). All of the assays were conducted in triplicate in at least three independent experiments. Data were analyzed using a nonlinear regression model with GraFit 6 software (Erithacus, Horley, Surrey, U.K.).

[4] = system: L. infantum intracellular amastigotes; assay: Leishmanicidal activity in amastigote-infected THP-1 monocyte-derived macrophages; format: cell-based, Leishmania infantum; conditions: for EC50: amastigote-infected THP-1 macrophages, 72 h, read-out: EC50 intracellular amastigotes
Experimental: (§3) THP-1 monocytes were seeded in a 48-well plate at a concentration of 5 × 10^5 cells/mL (250 μL/well) in RPMI complete medium supplemented with phorbol 12-myristate 13-acetate (PMA) (100 ng/mL). Differentiation of THP-1 monocytes to macrophages was allowed for 24 h at 37 °C and 5% CO2. THP-1-derived macrophages were infected with GFP-expressing axenic amastigotes at 5 × 10^6 parasites/mL in RPMI complete medium for 24 h (250 μL/well). Extracellular amastigotes were washed twice with PBS. The remaining extracellular parasites were challenged for 24 h with THP-1 medium supplemented with 10% horse serum (Gibco) instead of FCS. Cells were washed twice with PBS, and treatments were performed in 250 μL of fresh RPMI medium supplemented with 10% horse serum for 72 h at 37 °C and 5% CO2. Afterward, treatments were removed by two PBS washes. Lysis of infected cells was performed with 120 μL of SDS 0.005% (w/v) in PBS. After a 30 min incubation at 37 °C, lysis was stopped by adding RPMI complete medium with PI at 20 μg/mL (120 μL/well). The lysates were transferred to a 96-well plate (200 μL/well), and the GFP^+ amastigotes extracted from the infected cells were acquired by a Beckman Coulter FC500 flow cytometer. Each sample (100 μL) was acquired for 20 s.
The relative number of GFP^+ intracellular amastigotes per cell in each sample was estimated after the division of the total number of GFP+ amastigotes by the LDH activity value of the sample. Results were normalized to the vehicle-treated controls. EC50 values of intracellular amastigotes were calculated using a nonlinear regression model with GraFit 6 software (Erithacus, Horley, Surrey, U.K.). All of the assays were conducted in at least three independent experiments.

[5] = system: THP-1 monocyte-derived macrophages; assay: Cytotoxicity in THP-1 monocyte-derived macrophages (LDH activity); format: cell-based, human; conditions: LDH activity
Experimental: THP-1 cells were grown in RPMI-1640 medium (Gibco, Leiden, The Netherlands) supplemented with 10% heat-inactivated FCS, antibiotics, 10 mM HEPES, 2 mM glutamine, and 1 mM sodium pyruvate, pH 7.2, at 37 °C and 5% CO2.
as §3
Cytotoxicity of THP-1 infected macrophages was determined using an in-house developed lactate dehydrogenase (LDH) activity assay. LDH activity assays from the remaining cell lysates (100 μL/well) were carried out at 37 °C in 250 μL of Tris/HCl buffer (pH 8.9, 50 mM) containing DL-lactate (840 mM), NAD^+ (450 μM), 1-methoxyphenazine methosulfate (45 μM), and nitro blue tetrazolium chloride (40 μM). The color intensity of the generated formazan dye was monitored at 570 nm using an EnSpire Multimode Plate Reader (PerkinElmer, Waltham, MA). CC50 values were calculated using a nonlinear regression model with GraFit 6 software (Erithacus, Horley, Surrey, U.K.).

[6] = biological target: T1, LiTryR (Leishmania infantum, UniProt A4HSF7); assay: biochemical; format: biochemical; conditions: LiTryR; 1 μM TS2; maximum assayed 75 μM; read-out: IC50^act, TryR oxidoreductase activity
T1 construct: HIS (N); made in house; host or cells: E. coli BL21 (DE3) Rossetta
Experimental: A concentration of 1 μM TS2 was used for this initial screening. This low substrate concentration is sufficient for comparison of compound inhibitory activity in the oxidoreductase assay.
Recombinant L. infantum TryR (LiTryR) HIS-tagged and HIS-FLAG-tagged versions were used for all LiTryR oxidoreductase activity and dimer quantitation assays. These LiTryR versions were purified from Escherichia coli as previously described.[25] Briefly, pRSETA-HIS-LiTryR construct alone or in combination with the pET24a-FLAG-LiTryR construct was transformed into BL21 (DE3) Rossetta E. coli strain. An overnight E. coli culture grown at 37 °C in Luria–Bertani (LB) medium with the appropriate antibiotics and vigorous shaking was diluted (1:100) in the same medium and allowed to grow in the same conditions until the OD600 was 0.5. Then, LiTryR expression was induced by addition of 1 mM isopropyl-β-D-1-thiogalactopyranoside (IPTG) for 16 h at 26 °C. The cells were centrifuged for 5 min at 9000g and 4 °C and the wet pellet resuspended in lysis buffer (50 mM Tris, pH 7, 300 mM NaCl, 25 mM imidazole, protease inhibitor cocktail, and 1 mg/mL lysozyme). […] The supernatant was sonicated again as previously described for 10 min and loaded on a HisTrap column (GE Healthcare, Chicago, IL) for 16 h at 4 °C using a P-1 peristaltic pump (GE Healthcare, Chicago, IL). Once loaded, the HisTrap column was connected to an ÄKTA purifier UPC 10 (GE Healthcare, Chicago, IL) and washed using a 5–10% gradient between buffer A (50 mM Tris, pH 7 and 300 mM NaCl) and B (50 mM Tris, pH 7, 300 mM NaCl, and 500 mM imidazole). LiTryR was eluted using a 40% gradient between buffers A and B. Fractions containing recombinant LiTryR were pooled and loaded into a HiPrep 26/10 Desalting column (GE Healthcare, Chicago, IL) previously equilibrated with buffer A. Finally, LiTryR was concentrated to 2 mg/mL using an Amicon Ultra-15 50K (Merck Millipore, Burlington, MA) and an equal volume of glycerol was added before storing at −20 °C.
TryR oxidoreductase activity was determined spectrophotometrically using a modified version of the DTNB-coupled assay described by Hamilton et al.[52] Briefly, reactions were carried out at 26 °C in 250 μL of N-(2-hydroxyethyl)piperazine-N′-ethanesulfonic acid (HEPES) buffer (pH 7.5, 40 mM) containing ethylenediaminetetraacetic acid (EDTA) (1 mM), NADP^+ (30 μM), DTNB (25 μM), TS2 (1 μM), NADPH (150 μM), glycerol (0.02%), DMSO (1.75%), and recombinant TryR (7 nM). […] Reactions were started by addition of a mixture of NADPH and TS2.
TryR oxidoreductase activity was monitored at 26 °C by an increase in absorbance at 412 nm in an EnSpire Multimode Plate Reader (PerkinElmer, Waltham, MA). […] (TNB) concentration was obtained by multiplying the absorbance values by 100 (50 μM TNB generates 0.5 arbitrary units of absorbance at 412 nm). In this DTNB-coupled assay, one molecule of T(SH)2 reduces one molecule of DTNB, producing two TNB molecules. All of the assays were conducted in at least three independent experiments. Data were analyzed using a nonlinear regression model with GraFit 6 software (Erithacus, Horley, Surrey, U.K.).

[7] = biological target: T2, LiTryR dimer (Leishmania infantum, UniProt A4HSF7); assay: biochemical; conditions: 400 nM LiTryR, 16 h at 37 °C; read-out: IC50^dim, LiTryR monomer displacement (dimer quantitation ELISA)
T2 construct: made in house; host or cells: E. coli BL21 (DE3) Rossetta (co-transformed with both plasmids)
Experimental: The stability of the LiTryR dimeric form in the presence of 1,2,3-triazole-phenyl-thiazole-based compounds was evaluated using the novel enzyme-linked immunosorbent assay (ELISA) developed in our laboratory.[25] […] Next, the different solutions were centrifuged at 18 000g for 15 min at room temperature. The supernatants (200 μL/well) were added to the α-FLAG-coated plates (Sigma-Aldrich, St. Louis, MO) and incubated for 30 min at 37 °C with agitation in a humid atmosphere. The plates were washed five times with TTBS buffer (2 mM Tris, pH 7.6, 138 mM NaCl, and 0.1% Tween-20) and incubated with diluted monoclonal α-HIS horseradish peroxidase (HRP)-conjugated antibody (200 μL, 1:50 000, Abcam, Cambridge, U.K.) in fatty acid- and essentially globulin-free bovine serum albumin (BSA) (5%) prepared in TTBS buffer for 1 h at room temperature. The plates were washed five times, and o-phenylenediamine dihydrochloride (OPD) substrate prepared according to the manufacturer’s instructions was added. The enzymatic reaction was stopped after 5 min with H2SO4 (100 μL, […]), and the absorbances were measured at 490 nm in an EnSpire Multimode Plate Reader (PerkinElmer, Waltham, MA). All of the assays were conducted in triplicate in at least three independent experiments. Data were analyzed using a nonlinear regression model with GraFit 6 software (Erithacus, Horley, Surrey, U.K.).

[8] = 24 h at 26 °C, read-out: EC50 promastigotes
[9] = Leishmania infantum, THP-1, 72 h

T1 sequence (A4HSF7 1-491): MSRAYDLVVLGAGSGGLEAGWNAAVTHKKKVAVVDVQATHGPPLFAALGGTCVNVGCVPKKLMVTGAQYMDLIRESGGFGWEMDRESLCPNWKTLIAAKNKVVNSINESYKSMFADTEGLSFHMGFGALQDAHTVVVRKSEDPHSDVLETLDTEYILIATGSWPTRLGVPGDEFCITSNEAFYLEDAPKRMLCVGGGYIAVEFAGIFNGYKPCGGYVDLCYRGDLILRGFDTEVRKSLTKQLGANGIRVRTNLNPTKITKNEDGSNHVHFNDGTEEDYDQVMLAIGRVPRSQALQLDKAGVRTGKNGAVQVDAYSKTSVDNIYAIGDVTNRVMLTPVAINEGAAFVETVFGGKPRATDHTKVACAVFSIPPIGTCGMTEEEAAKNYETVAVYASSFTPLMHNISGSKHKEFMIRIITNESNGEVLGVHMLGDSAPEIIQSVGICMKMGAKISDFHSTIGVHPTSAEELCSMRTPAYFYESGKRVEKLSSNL
T2 sequence (A4HSF7 1-491): as above

Row | Compound | SIp (ratio of EC50 against human cells to EC50 against promastigotes) ([1]; HepG2 / promastigotes) | EC50 [1, 8] [µM] | SIa (ratio of EC50 against human cells to EC50 against amastigotes) [2] | EC50 [2] [µM] | EC50 [3] [µM] | EC50 [4, 9] [µM] | EC50 ([5]; Homo sapiens, THP-1) [µM] | IC50 [6] [µM] | IC50 [7] [µM] | EC50 ([1]; promastigotes or amastigotes (either form), read-out: EC50 against Leishmania promastigotes or amastigotes) [µM] | SI (intracellular amastigotes) ([4]; THP-1 / intracellular amastigotes) | EC50 [4] [µM] | EC50 [5] [µM]
1 | CCCCCCCCCCCCCCCCOP(=O)([O-])OCC[N+](C)(C)C [miltefosine, reference compound] | > 1.6 | 47.6 ± 0.6 | > 37.5 | 2 ± 0.1 | > 75 | 0.6 ± 0.1 | > 25 | – | – | – | – | – | –
2 | NCCCCc1cn(-c2ccc(-c3nc(CCc4ccc(Oc5ccccc5)cc4)c(-c4ccccc4)s3)c(OCCN3CCNC3=O)c2)nn1.O=C(O)C(F)(F)F [19e, 1-(2-(2-(4-(2-([4-Phenyloxyphenyl]-1-yl)ethyl)-5-phenyl-thiazol-2-yl)-5-(4-(4-ammoniobutyl)-1H-1,2,3-triazol-1-yl)phenoxy)ethyl)imidazolidin-2-one 2,2,2-Trifluoroacetate] | – | – | ND/<1 | 8.4 ± 0.1 | 6.6 ± 0.6 | – | – | 19.3 ± 3.7 | 6.7 ± 1 | < 10 | – | – | –
3 | C[C@@H]1[C@H](O)[C@@H](C)/C=C/C=C/C=C/C=C/C=C/C=C/C=C/[C@H](O[C@@H]2O[C@H](C)[C@@H](O)[C@H](N)[C@@H]2O)C[C@@H]2O[C@](O)(C[C@@H](O)C[C@@H](O)[C@H](O)CC[C@@H](O)C[C@@H](O)CC(=O)O[C@H]1C)C[C@H](O)[C@H]2C(=O)O [amphotericin B, reference compound] | – | – | – | – | – | 0.07 ± 0.01 | > 5 | – | – | – | – | – | –
4 | COc1cc(-n2cc(CCCCN)nn2)ccc1-c1nc(CCc2ccccc2)cs1.O=C(O)C(F)(F)F [12j] | – | 8.5 ± 0.1 | 1.7 | 7.1 ± 0.7 | 12.4 ± 0.7 | – | – | 20.1 ± 2.5 | > 75 | – | – | – | –
5 | edelfosine [reference compound] | – | – | – | – | – | – | – | – | – | – | 1.4 | 2.5 ± 0.02 | 3.5 ± 0.3
